target: Cholesteryl ester transfer protein (Homo sapiens) (UniProt P11597); experiment: inhibition of human CETP assessed as cholesteryl ester transfer by fluorescence transfer assay relative to control; parameters: concentration or dose not given beside the values; conditions: concentration not given here
Sequence (P11597 whole entry, looked up): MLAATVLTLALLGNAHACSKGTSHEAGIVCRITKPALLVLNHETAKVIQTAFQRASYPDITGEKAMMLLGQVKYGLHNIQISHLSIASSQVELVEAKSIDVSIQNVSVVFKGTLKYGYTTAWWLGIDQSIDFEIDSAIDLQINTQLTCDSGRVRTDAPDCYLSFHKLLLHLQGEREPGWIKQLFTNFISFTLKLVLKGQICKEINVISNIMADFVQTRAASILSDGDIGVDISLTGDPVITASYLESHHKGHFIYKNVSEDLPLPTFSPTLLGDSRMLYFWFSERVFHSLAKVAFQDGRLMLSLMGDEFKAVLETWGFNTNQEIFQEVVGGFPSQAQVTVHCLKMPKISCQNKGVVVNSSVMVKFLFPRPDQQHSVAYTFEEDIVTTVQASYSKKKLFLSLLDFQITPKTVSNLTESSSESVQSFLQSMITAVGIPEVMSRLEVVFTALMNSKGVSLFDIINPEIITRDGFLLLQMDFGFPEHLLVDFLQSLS

Row | Compound | inhibition [%]
1 | Cc1ccccc1OCC(=O)Nc1ccc(-c2nc3cccc(Cl)c3o2)cc1 | 71
2 | Cc1ccc2oc(-c3ccc(NC(=O)COc4ccccc4C)cc3)nc2c1 | 89
3 | Cc1ccccc1OCC(=O)Nc1ccc(-c2nc3cccc(F)c3o2)cc1 | 36

The next lines start with the values.

Row | inhibition [%] | Compound
4 | 34 | Cc1ccc2nc(-c3ccc(NC(=O)COc4ccccc4C)cc3)oc2c1
5 | 42 | Cc1ccccc1OCC(=O)Nc1ccc(-c2nc3c([N+](=O)[O-])cccc3o2)cc1
6 | 71 | Cc1ccccc1OCC(=O)Nc1ccc(-c2nc3ccc([N+](=O)[O-])cc3o2)cc1
7 | 50 | Cc1ccccc1OCC(=O)Nc1ccc(-c2nc3ccc(F)cc3o2)cc1
8 | 79 | Cc1ccccc1OCC(=O)Nc1ccc(-c2nc3cc([N+](=O)[O-])ccc3o2)cc1

Source: ChEMBL document CHEMBL1153121, “2-Arylbenzoxazoles as CETP inhibitors: Substitution of the benzoxazole moiety” (Bioorg Med Chem Lett, 2010)
